Laboratory results from US20250099434A1, “METHODS OF TREATING AMYLOID RELATED BRAIN DISORDERS USING NOVEL COMPOUNDS AND ANTIBODIES” (T3D Therapeutics, Inc., priority 2022, published 2025).
Like-named read-outs stand apart in the source and are kept apart here.

Key:
[1] = test system: glucose metabolism in the brain
human PPARγ = target: T1, human PPARγ (Homo sapiens, UniProt P37231); test: Human PPAR activation, transient transfection in CV-1 cells (gamma subtype); assay type: cell-based
T1 construct: expressed in transfected cells; host or cells: CV-1 cells
T1 sequence (P37231 1-505): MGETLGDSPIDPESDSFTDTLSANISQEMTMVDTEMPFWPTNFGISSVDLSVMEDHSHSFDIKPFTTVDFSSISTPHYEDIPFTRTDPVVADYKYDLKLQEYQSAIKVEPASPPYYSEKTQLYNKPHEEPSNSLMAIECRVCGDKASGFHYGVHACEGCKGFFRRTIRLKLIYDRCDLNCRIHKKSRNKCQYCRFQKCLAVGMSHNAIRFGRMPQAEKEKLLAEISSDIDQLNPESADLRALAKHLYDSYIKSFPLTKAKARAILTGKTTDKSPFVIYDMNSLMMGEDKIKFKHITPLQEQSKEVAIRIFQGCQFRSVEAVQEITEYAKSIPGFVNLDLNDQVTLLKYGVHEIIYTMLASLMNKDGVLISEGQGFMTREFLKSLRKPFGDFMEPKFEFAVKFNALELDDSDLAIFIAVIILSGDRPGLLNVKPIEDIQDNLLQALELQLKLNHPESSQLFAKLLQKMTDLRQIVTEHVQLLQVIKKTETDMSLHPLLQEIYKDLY
Excerpt: (§1) PPAR receptor agonist activity may be determined by conventional screening methods known to the skilled in the art. For example, methods described in U.S. Patent Application Publication No. 2007/0054907, 2008/0262047 and U.S. Pat. No. 7,314,879, which are incorporated by reference in their entireties.
(§2) The table summarize the results of studies performed in transfected CV-1 cells with three different lots of Compound of Example 11. […].

human PPARα = target: T2, human PPARα (Homo sapiens, UniProt Q07869); test: Human PPAR activation, transient transfection in CV-1 cells (alpha subtype); assay type: cell-based
T2 construct: expressed in transfected cells; host or cells: CV-1 cells
T2 sequence (Q07869 1-468): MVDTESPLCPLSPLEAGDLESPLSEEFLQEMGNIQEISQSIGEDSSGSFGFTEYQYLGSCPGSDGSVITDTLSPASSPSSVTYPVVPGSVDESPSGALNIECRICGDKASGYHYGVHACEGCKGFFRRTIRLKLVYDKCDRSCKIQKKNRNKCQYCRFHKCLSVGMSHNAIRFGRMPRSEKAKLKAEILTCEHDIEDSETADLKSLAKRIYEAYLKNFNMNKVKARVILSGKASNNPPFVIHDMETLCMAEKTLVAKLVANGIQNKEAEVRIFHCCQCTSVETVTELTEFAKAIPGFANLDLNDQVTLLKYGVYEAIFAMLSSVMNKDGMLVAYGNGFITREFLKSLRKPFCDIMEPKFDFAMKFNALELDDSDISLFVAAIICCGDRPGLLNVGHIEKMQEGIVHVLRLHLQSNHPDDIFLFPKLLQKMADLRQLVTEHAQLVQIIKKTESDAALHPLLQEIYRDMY
Excerpt: as §1, §2

[2] = 3 mg, White Matter as Reference Region
[3] = 3 mg, Whole Brain as Reference Region
[4] = 10 mg, White Matter as Reference Region
[5] = 10 mg, Whole Brain as Reference Region
[6] = 30 mg, White Matter as Reference Region
[7] = 30 mg, Whole Brain as Reference Region
[8] = 90 mg, White Matter as Reference Region
[9] = 90 mg, Whole Brain as Reference Region

CCc1oc(-c2ccc(OC)cc2)nc1CCOc1ccc2c(c1)CC[C@H]2CC(=O)[O-].[Na+] [Example 11, Sodium (S)-2-(5-(2-(5-ethyl-2-(4-methoxyphenyl)oxazol-4-yl)ethoxy)-2,3-dihydro-1H-inden-1-yl)acetate]
Δ R CMRgI (EOT-BL) Sensory Motor Cortex Left, Ave [1, 2]: −0.0005
Δ R CMRgI (EOT-BL) Sensory Motor Cortex Right, Ave [1, 2]: −0.0151
Δ R CMRgI (EOT-BL) Visual Cortex Left, Ave [1, 2]: −0.0219
Δ R CMRgI (EOT-BL) Visual Cortex Right, Ave [1, 2]: −0.0272
Δ R CMRgI (EOT-BL) Sensory Motor Cortex Left, Ave [1, 3]: 0.0152
Δ R CMRgI (EOT-BL) Sensory Motor Cortex Right, Ave [1, 3]: −0.0037
Δ R CMRgI (EOT-BL) Visual Cortex Left, Ave [1, 3]: −0.0196
Δ R CMRgI (EOT-BL) Visual Cortex Right, Ave [1, 3]: −0.0269
spatial extent of ROSDs with positive ΔR CMRgl (EOT-BL) relative to Whole Brain ([1]; 10 mg): 70 voxels
Δ R CMRgI (EOT-BL) Sensory Motor Cortex Left, Ave [1, 4]: 0.0005
Δ R CMRgI (EOT-BL) Sensory Motor Cortex Right, Ave [1, 4]: −0.0005
Δ R CMRgI (EOT-BL) Visual Cortex Left, Ave [1, 4]: −0.0014
Δ R CMRgI (EOT-BL) Visual Cortex Right, Ave [1, 4]: −0.0033
Δ R CMRgI (EOT-BL) Sensory Motor Cortex Left, Ave [1, 5]: 0.0008
Δ R CMRgI (EOT-BL) Sensory Motor Cortex Right, Ave [1, 5]: 0.0003
Δ R CMRgI (EOT-BL) Visual Cortex Left, Ave [1, 5]: −0.0032
Δ R CMRgI (EOT-BL) Visual Cortex Right, Ave [1, 5]: −0.0053
Δ R CMRgI (EOT-BL) Sensory Motor Cortex Left, Ave [1, 6]: −0.0040
Δ R CMRgI (EOT-BL) Sensory Motor Cortex Right, Ave [1, 6]: −0.0229
Δ R CMRgI (EOT-BL) Visual Cortex Left, Ave [1, 6]: −0.0314
Δ R CMRgI (EOT-BL) Visual Cortex Right, Ave [1, 6]: −0.0408
Δ R CMRgI (EOT-BL) Sensory Motor Cortex Left, Ave [1, 7]: 0.0213
Δ R CMRgI (EOT-BL) Sensory Motor Cortex Right, Ave [1, 7]: −0.0040
Δ R CMRgI (EOT-BL) Visual Cortex Left, Ave [1, 7]: −0.0158
Δ R CMRgI (EOT-BL) Visual Cortex Right, Ave [1, 7]: −0.0271
Δ R CMRgI (EOT-BL) Sensory Motor Cortex Left, Ave [1, 8]: −0.0076
Δ R CMRgI (EOT-BL) Sensory Motor Cortex Right, Ave [1, 8]: −0.0078
Δ R CMRgI (EOT-BL) Visual Cortex Left, Ave [1, 8]: −0.0775
Δ R CMRgI (EOT-BL) Visual Cortex Right, Ave [1, 8]: −0.0730
Δ R CMRgI (EOT-BL) Sensory Motor Cortex Left, Ave [1, 9]: 0.0244
Δ R CMRgI (EOT-BL) Sensory Motor Cortex Right, Ave [1, 9]: 0.0251
Δ R CMRgI (EOT-BL) Visual Cortex Left, Ave [1, 9]: −0.0685
Δ R CMRgI (EOT-BL) Visual Cortex Right, Ave [1, 9]: −0.0604
dose dependence of effect on FDG-PET outcomes ([1]; 3 to 90 mg): dose-dependent
effect on glucose metabolism in the brain ([1]; two week treatment): altered the glucose metabolism in the brain
Blood Brain Barrier penetration inferred from FDG-PET ([1]; voxel-wise (SPM) analysis, even at the lowest 3 mg): penetrates the Blood Brain Barrier (BBB)
Peak effect PPARγ (human PPARγ): 29.49
Peak effect PPARα (human PPARα): 1.87
maximal response, human alpha subtype (human PPARα): significantly reduced maximal response
